In patent US20250283052A1, “THERAPEUTIC NK CELL POPULATIONS” (Gamida Cell Ltd., priority 2021, published 2025):

Experiments:
CD200R = CD200R immunophenotyping of expanded NK cells (FACS); type: cell-based; conditions: 2 weeks culture without NAM or with 2.5, 5 or 7 mM NAM (FIG. 3)
Method: Cells were cultured for 2 weeks without NAM and with 2.5 mM, 5 mM NAM or 7 mM NAM. Samples for staining against CD200R were analyzed by FACS.
The immune checkpoint receptors, CD200R and Programmed Death receptor-1 (PD-1), are exploited by tumor cells which overexpress their ligands to suppress lymphocytes anti-tumor activity. The effect of expansion with nicotinamide (NAM) on expression of immune checkpoint receptors in NK cells was assessed.

CD62L = CD62L staining 2 hours post-thaw (FACS); type: cell-based; conditions: culturing in 7 mM NAM; 2 hours post-thaw (FIG. 2)
Method: The cells were thawed, and 2 hours post-thaw were sampled for staining against CD62L and analyzed by FACS. Assays for adhesion and migration molecules such as CD62L, CXCR-4, CD49e and the like, important for homing/engraftment and retention of cells in transplantation, are well known in the art. CD62L expression in a cell can be assayed, for example, by flow cytometry, immunodetection, quantitative cDNA amplification, hybridization and the like. In one embodiment, CD62L expression is detected in different populations of NK cells by exposure of the cells to a fluorescent-tagged specific anti-human CD62L monoclonal antibody [e.g., CD62L PE, Cat. No. 304806 from BioLegend (San Diego, CA, USA)], and sorting of the cells by fluorescent activated cell sorting (FACS). After 2 weeks in culture according to the methods of the invention, a modified procedure using inactivated autologous CD3+ cells as feeder, supplemented with OKT3 and NAM, led to an improved fold expansion, which increased the total number of viable cells obtained at harvest. The functionality of the cells in killing and ADCC was assessed by combination of NK cells with target cells BL2 (Burkitt lymphoma cell line)—at different ratios. […]

NC(=O)c1cccnc1 [NAM, nicotinamide]
expression of CD200R on expanded NK cells (CD200R): down regulated | expression of CD62L (CD62L): increased expression of CD62L
